Data taken from publication PMC11390765 (Cancer Chemotherapy and Pharmacology, 2024).

Experiments:
[1] = Safety and tolerability (adverse events, CTCAE v5.0; full analysis set); type: in vivo, human
Experimental: Safety and tolerability were evaluated in terms of AEs, which were classified and graded according to the National Cancer Institute (NCI) Common Terminology Criteria for Adverse Events (CTCAE) v5.0; vital signs; 12-lead electrocardiogram (ECG); and clinical laboratory assessments, including clinical chemistry and hematology parameters, urinalysis, HbA1c levels, and lipid profiles.
Efficacy analyses were also performed on the full analysis set. Summary and/or descriptive statistics were used to analyze baseline demographic, safety, and efficacy data; PFS and DoR were estimated using Kaplan–Meier methodology.

[2] = tested on: all three isoforms of AKT; set-up: method as in PMID 22294718; conditions: cited from earlier work
[3] = part B period 4, capivasertib only 400 mg BID, N=19
[4] = period 2, days 2–7 cycle 1, capivasertib only 400 mg BID, N=21
[5] = total, all treatment periods, N=21

## NC1(C(=O)N[C@@H](CCO)c2ccc(Cl)cc2)CCN(c2nc[nH]c3nccc2-3)CC1 [capivasertib]
[1]; ECG, whole study
  QT prolongation: no reports of QT prolongation
[1]; N = 21
  patients requiring a capivasertib dose interruption due to AEs: 66.7%
  patients requiring a capivasertib dose reduction due to AEs: 23.8%
  patients with AEs leading to permanent discontinuation of capivasertib: Three
[1]; administered with or without midazolam
  safety profile: manageable safety profile
[1]; all treatment periods, N = 21
  Anemia, frequency of patients overall: 28.6%
  Diarrhea, frequency of patients overall: 76.2%
  Fatigue, frequency of patients overall: 33.3%
  Hyperglycemia, frequency of patients overall: 28.6%
  Nausea, frequency of patients overall: 33.3%
[1]; in total, N = 21
  patients who experienced grade 3 AEs: 57.1%
  patients who experienced grade ≥ 3 AEs: 66.7%
[1]; n = 1 period 2, n = 1 period 3, n = 3 part B, only one considered related to study treatment
  serious AEs (SAEs) reported in the study: five
[1]; one in part A, three in part B, none deemed possibly related to study treatment
  deaths during the study: four
[1]; [3]
  Abdominal pain, any grade: 1 (5.3) n (%)
  Abdominal pain, grade ≥ 3: 1 (5.3) n (%)
  Anemia, any grade: 4 (21.1) n (%)
  Anemia, grade ≥ 3: 0 n (%)
  Any AE, any grade: 17 (89.5) n (%)
  Any AE, grade ≥ 3: 9 (47.4) n (%)
  Asthenia, any grade: 2 (10.5) n (%)
  Asthenia, grade ≥ 3: 1 (5.3) n (%)
  Blood alkaline phosphatase increased, any grade: 0 n (%)
  Blood alkaline phosphatase increased, grade ≥ 3: 0 n (%)
  Blood bilirubin increased, any grade: 2 (10.5) n (%)
  Blood bilirubin increased, grade ≥ 3: 1 (5.3) n (%)
  Blood creatinine increased, any grade: 3 (15.8) n (%)
  Blood creatinine increased, grade ≥ 3: 0 n (%)
  COVID-19, any grade: 1 (5.3) n (%)
  COVID-19, grade ≥ 3: 1 (5.3) n (%)
  Decreased appetite, any grade: 4 (21.1) n (%)
  Decreased appetite, grade ≥ 3: 2 (10.5) n (%)
  Diarrhea, any grade: 7 (36.8) n (%)
  Diarrhea, grade ≥ 3: 1 (5.3) n (%)
  Fatigue, any grade: 4 (21.1) n (%)
  Fatigue, grade ≥ 3: 2 (10.5) n (%)
  Gamma-glutamyl transferase increased, any grade: 1 (5.3) n (%)
  Gamma-glutamyl transferase increased, grade ≥ 3: 1 (5.3) n (%)
  Hyperglycemia, any grade: 3 (15.8) n (%)
  Hyperglycemia, grade ≥ 3: 0 n (%)
  Hypoalbuminemia, any grade: 0 n (%)
  Hypoalbuminemia, grade ≥ 3: 0 n (%)
  Hypokalemia, any grade: 3 (15.8) n (%)
  Hypokalemia, grade ≥ 3: 1 (5.3) n (%)
  Hyponatremia, any grade: 3 (15.8) n (%)
  Hyponatremia, grade ≥ 3: 1 (5.3) n (%)
  Hypotension, any grade: 3 (15.8) n (%)
  Hypotension, grade ≥ 3: 1 (5.3) n (%)
  Large intestinal obstruction, any grade: 1 (5.3) n (%)
  Large intestinal obstruction, grade ≥ 3: 1 (5.3) n (%)
  Lymphocyte count decreased, any grade: 2 (10.5) n (%)
  Lymphocyte count decreased, grade ≥ 3: 0 n (%)
  Nausea, any grade: 4 (21.1) n (%)
  Nausea, grade ≥ 3: 0 n (%)
  Rash (group term), any grade: 2 (10.5) n (%)
  Rash (group term), grade ≥ 3: 0 n (%)
  Sepsis, any grade: 1 (5.3) n (%)
  Sepsis, grade ≥ 3: 1 (5.3) n (%)
  Thrombocytopenia, any grade: 0 n (%)
  Thrombocytopenia, grade ≥ 3: 0 n (%)
  Ureteric obstruction, any grade: 1 (5.3) n (%)
  Ureteric obstruction, grade ≥ 3: 1 (5.3) n (%)
  Urticaria, any grade: 0 n (%)
  Urticaria, grade ≥ 3: 0 n (%)
[1]; part B, not considered related to capivasertib or midazolam
  patients who experienced a grade 5 AE (sepsis): 4.8%
[1]; [4]
  Abdominal pain, any grade: 1 (4.8) n (%)
  Abdominal pain, grade ≥ 3: 0 n (%)
  Anemia, any grade: 2 (9.5) n (%)
  Anemia, grade ≥ 3: 1 (4.8) n (%)
  Any AE, any grade: 10 (47.6) n (%)
  Any AE, grade ≥ 3: 3 (14.3) n (%)
  Asthenia, any grade: 1 (4.8) n (%)
  Asthenia, grade ≥ 3: 0 n (%)
  Blood alkaline phosphatase increased, any grade: 0 n (%)
  Blood alkaline phosphatase increased, grade ≥ 3: 0 n (%)
  Blood bilirubin increased, any grade: 0 n (%)
  Blood bilirubin increased, grade ≥ 3: 0 n (%)
  Blood creatinine increased, any grade: 0 n (%)
  Blood creatinine increased, grade ≥ 3: 0 n (%)
  COVID-19, any grade: 0 n (%)
  COVID-19, grade ≥ 3: 0 n (%)
  Decreased appetite, any grade: 0 n (%)
  Decreased appetite, grade ≥ 3: 0 n (%)
  Diarrhea, any grade: 6 (28.6) n (%)
  Diarrhea, grade ≥ 3: 0 n (%)
  Fatigue, any grade: 0 n (%)
  Fatigue, grade ≥ 3: 0 n (%)
  Gamma-glutamyl transferase increased, any grade: 0 n (%)
  Gamma-glutamyl transferase increased, grade ≥ 3: 0 n (%)
  Hyperglycemia, any grade: 1 (4.8) n (%)
  Hyperglycemia, grade ≥ 3: 0 n (%)
  Hypoalbuminemia, any grade: 1 (4.8) n (%)
  Hypoalbuminemia, grade ≥ 3: 1 (4.8) n (%)
  Hypokalemia, any grade: 1 (4.8) n (%)
  Hypokalemia, grade ≥ 3: 0 n (%)
  Hyponatremia, any grade: 1 (4.8) n (%)
  Hyponatremia, grade ≥ 3: 0 n (%)
  Hypotension, any grade: 0 n (%)
  Hypotension, grade ≥ 3: 0 n (%)
  Large intestinal obstruction, any grade: 0 n (%)
  Large intestinal obstruction, grade ≥ 3: 0 n (%)
  Lymphocyte count decreased, any grade: 1 (4.8) n (%)
  Lymphocyte count decreased, grade ≥ 3: 1 (4.8) n (%)
  Nausea, any grade: 2 (9.5) n (%)
  Nausea, grade ≥ 3: 0 n (%)
  Rash (group term), any grade: 0 n (%)
  Rash (group term), grade ≥ 3: 0 n (%)
  Sepsis, any grade: 0 n (%)
  Sepsis, grade ≥ 3: 0 n (%)
  Thrombocytopenia, any grade: 1 (4.8) n (%)
  Thrombocytopenia, grade ≥ 3: 1 (4.8) n (%)
  Ureteric obstruction, any grade: 0 n (%)
  Ureteric obstruction, grade ≥ 3: 0 n (%)
  Urticaria, any grade: 0 n (%)
  Urticaria, grade ≥ 3: 0 n (%)
[1]; [5]
  Abdominal pain, any grade: 2 (9.5) n (%)
  Abdominal pain, grade ≥ 3: 1 (4.8) n (%)
  Anemia, any grade: 6 (28.6) n (%)
  Anemia, grade ≥ 3: 1 (4.8) n (%)
  Any AE, any grade: 21 (100) n (%)
  Any AE, grade ≥ 3: 14 (66.7) n (%)
  Asthenia, any grade: 3 (14.3) n (%)
  Asthenia, grade ≥ 3: 1 (4.8) n (%)
  Blood alkaline phosphatase increased, any grade: 1 (4.8) n (%)
  Blood alkaline phosphatase increased, grade ≥ 3: 1 (4.8) n (%)
  Blood bilirubin increased, any grade: 2 (9.5) n (%)
  Blood bilirubin increased, grade ≥ 3: 1 (4.8) n (%)
  Blood creatinine increased, any grade: 3 (14.3) n (%)
  Blood creatinine increased, grade ≥ 3: 0 n (%)
  COVID-19, any grade: 2 (9.5) n (%)
  COVID-19, grade ≥ 3: 1 (4.8) n (%)
  Decreased appetite, any grade: 5 (23.8) n (%)
  Decreased appetite, grade ≥ 3: 2 (9.5) n (%)
  Diarrhea, any grade: 16 (76.2) n (%)
  Diarrhea, grade ≥ 3: 1 (4.8) n (%)
  Fatigue, any grade: 7 (33.3) n (%)
  Fatigue, grade ≥ 3: 2 (9.5) n (%)
  Gamma-glutamyl transferase increased, any grade: 1 (4.8) n (%)
  Gamma-glutamyl transferase increased, grade ≥ 3: 1 (4.8) n (%)
  Hyperglycemia, any grade: 6 (28.6) n (%)
  Hyperglycemia, grade ≥ 3: 1 (4.8) n (%)
  Hypoalbuminemia, any grade: 1 (4.8) n (%)
  Hypoalbuminemia, grade ≥ 3: 1 (4.8) n (%)
  Hypokalemia, any grade: 5 (23.8) n (%)
  Hypokalemia, grade ≥ 3: 1 (4.8) n (%)
  Hyponatremia, any grade: 4 (19.0) n (%)
  Hyponatremia, grade ≥ 3: 1 (4.8) n (%)
  Hypotension, any grade: 4 (19.0) n (%)
  Hypotension, grade ≥ 3: 1 (4.8) n (%)
  Large intestinal obstruction, any grade: 1 (4.8) n (%)
  Large intestinal obstruction, grade ≥ 3: 1 (4.8) n (%)
  Lymphocyte count decreased, any grade: 3 (14.3) n (%)
  Lymphocyte count decreased, grade ≥ 3: 1 (4.8) n (%)
  Nausea, any grade: 7 (33.3) n (%)
  Nausea, grade ≥ 3: 0 n (%)
  Rash (group term), any grade: 8 (38.1) n (%)
  Rash (group term), grade ≥ 3: 3 (14.3) n (%)
  Sepsis, any grade: 1 (4.8) n (%)
  Sepsis, grade ≥ 3: 1 (4.8) n (%)
  Thrombocytopenia, any grade: 1 (4.8) n (%)
  Thrombocytopenia, grade ≥ 3: 1 (4.8) n (%)
  Ureteric obstruction, any grade: 1 (4.8) n (%)
  Ureteric obstruction, grade ≥ 3: 1 (4.8) n (%)
  Urticaria, any grade: 1 (4.8) n (%)
  Urticaria, grade ≥ 3: 1 (4.8) n (%)
[1]; treatment period 2, not considered related to capivasertib or midazolam
  patients who experienced a grade 4 AE (thrombocytopenia): 4.8%
[2]
  inhibition of AKT isoforms: potent, selective inhibitor
